According to US10322088B2, “Sustained-release composition, method for fabricating, and use thereof” (NATIONAL TSING HUA UNIVERSITY, priority 2017, dated 2019):

Tests used:
[1] = test system: human umbilical vein endothelial cells; test: Tubular structure formation test on Matrigel; format: cell-based; conditions: 25 mM D-glucose
Description: The human umbilical vein endothelial cells will migrate, arrange and form a tubular network structure without additional growth factors and the participation of other kinds of cells, thus the wound-healing efficiency is affected by the maintenance of the tubular structure of the cells as time goes on. Therefore, the ability to enhance cell migration and facilitate the angiogenesis of the sustained-release composition of the present disclosure is confirmed by the tubular structure formation test of the human umbilical vein endothelial cells. The specific experimental method is described below. First, 200 μL of the growth factor-reduced matrix Matrigel is added to each well of a 24-well plate respectively and then placed into the 37° C. incubator. After the growth factor-reduced matrix Matrigel is heated and become colloid, 2.5×10^4 of the human umbilical vein endothelial cells are seeded in each well of the aforementioned 24-well plate and then 200 μL of the medium (containing 25 mM D-glucose) is added to the wells respectively. […] Next, the tubular structure of each experimental group is observed via an inverted microscope at the time points of 6 hours, 12 hours, 24 hours and 48 hours, and the branching point number of each experimental group is calculated.

p38 protein = test: Signaling molecule activation test, p38 phosphorylation by ELISA; format: cell-based, human; conditions: HUVEC
Procedure: (§1) In the aforementioned description, the exogenous hydrogen sulfide can activate the signaling molecules related to the proliferation and the migration of the endothelial cells, such as ERK1/2 protein and p38 protein, so that the angiogenesis of the cells is enhanced. Thus, the ability to activate the signaling molecule of the sustained-release composition of the present disclosure is further estimated in this experiment. First, the human umbilical vein endothelial cells are seeded in a 6-well plate in a density of 10^5 cells per well. After incubating for 24 hours, the 1% FBS mediums containing the formula of the experimental group 1 or the experimental group 3 (all of them contain 25 mM D-glucose) respectively is added to each well of a 6-wells-plate. Finally, the cells are collected at specific time points and the phosphorylation level of p38 protein and ERK1/2 are quantified by the enzyme-linked immunosorbent assay (ELISA).

ERK1/2 protein = test: Signaling molecule activation test, ERK1/2 phosphorylation by ELISA; format: cell-based, human; conditions: HUVEC
Procedure: as §1

db/db mouse = test: In vivo wound healing test, full-thickness back skin wounds; conditions: after treating for 18 days, dressing replaced every 48 hours
Description: According to the aforementioned results, the sustained-release composition of the present disclosure does have the ability to enhance the cell migration, the cell proliferation and the angiogenesis, and the ability to facilitate the wound healing of the sustained-release composition of the present disclosure is further confirmed by the following in vivo wound healing test. The animal model established method and the animal experiment procedures of the in vivo wound healing test in this experiment are complied with the “Laboratory Animal Care and Use Guide” published by the Council of Agriculture, Taiwan. The diabetic animal model used in this experiment is an 8-week-old BKS.Cg-Lepr^db/Lepr^db/JNarl mouse (also known as db/db mouse).
In the in vivo wound healing test, four symmetrically distributed rounded full-thickness wounds are created on the back skin of each mouse by the tissue sampler after the mice are anesthetized, wherein the diameter of each wound is 0.5 centimeter and the volume of each wound is 50 μL. The four wounds are applied with different treatments respectively and the dressing is replaced every 48 hours. […] The area changes of each wound at different time points are further analyzed by the image analysis software.

S [experimental group 1, sodium hydrosulfide]
tubular structure ([1]; after incubating for 6 hours): can be observed
tubular structure disappeared rate ([1]; up to 48 hours): reduced
phosphorylation level of the p38 protein (p38 protein; after 24 hours and 48 hours): decreased
phosphorylation level of the p38 protein (p38 protein; first hour): significantly increased
phosphorylation level of the ERK1/2 protein (ERK1/2 protein; after 24 hours and 48 hours): decreased
phosphorylation level of the ERK1/2 protein (ERK1/2 protein; first hour): significantly increased
appearance of the wound (db/db mouse): unobvious
